Results from the supplement of paper PMC11451515.

What was measured:
Conditions in all cases: 48 h
SEM cells [1] = assay: AUC of viability dose-response curve (% viability x log10 dose units); higher = less sensitive
Outline: (§1)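 In 1536-well plates, leukemia cells adapted to each medium (500 or 1000 cells/well) were exposed for 48 h at 37°C to library compounds in DMSO across 11 threefold doses, 47 μM down to 0.79 nM. Viability was read by CellTiter-Glo One luminescence and normalised per plate to DMSO and cell-free wells. A four-parameter log-logistic fit over log10 doses was integrated by trapezoidal rule. This yielded the area under the curve, with over-full-viability curves scaled and quality-control failures dropped.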

NOMO1 [2] = assay: as above
Outline: as §1

P12-Ichikawa [3] = assay: as above
Outline: as §1

SEM cells [4] = assay: cell viability relative to DMSO control; higher = less cytotoxic
Outline: (§2)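 NOMO1 or SEM cells were plated at 500 cells/well and P12-Ichikawa cells at 1000 cells/well in 1536-well plates (5 μl), after each leukemia line had been adapted for at least four passages in each medium. Pin dosing delivered library compounds in DMSO at 11 threefold concentrations, 47 μM to 0.79 nM. CellTiter-Glo One luminescence was read after 48 h at 37°C. Viability is reported as a per-plate percentage of DMSO wells, with cell-free wells as background.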

NOMO1 [5] = assay: as above
Outline: as §2

P12-Ichikawa [6] = assay: as above
Outline: as §2

Cc1[nH]c(/C=C2\C(=O)Nc3ccccc32)c(C)c1CCC(=O)O
AUC of viability dose-response curve
Conditions	NOMO1 [2]	P12-Ichikawa [3]	SEM cells [1]
HPLM + 10% dialyzed FBS	433	406	245
RPMI 5 mM glucose + 10% FBS	434	408	288
RPMI 5 mM glucose + 10% dialyzed FBS	457	419	236

cell viability [%]
Conditions	NOMO1 [5]	P12-Ichikawa [6]	SEM cells [4]
HPLM + 10% dialyzed FBS, 0.000781 µM	92.3	95.3	55
HPLM + 10% dialyzed FBS, 0.00234 µM	101	101	85.6
HPLM + 10% dialyzed FBS, 0.00702 µM	108	99.3	76.3
HPLM + 10% dialyzed FBS, 0.0211 µM	114	105	81.6
HPLM + 10% dialyzed FBS, 0.0632 µM	113	111	68.9
HPLM + 10% dialyzed FBS, 0.19 µM	106	114	84
HPLM + 10% dialyzed FBS, 0.569 µM	99.9	88.7	6.38
HPLM + 10% dialyzed FBS, 1.71 µM	118	104	32.1
HPLM + 10% dialyzed FBS, 5.12 µM	105	73.1	26.4
HPLM + 10% dialyzed FBS, 15.4 µM	51.3	32.2	26.5
HPLM + 10% dialyzed FBS, 46.1 µM	23.8	6.87	18.7
RPMI 5 mM glucose + 10% FBS, 0.000781 µM	95.9	105	71.9
RPMI 5 mM glucose + 10% FBS, 0.00234 µM	112	103	97.7
RPMI 5 mM glucose + 10% FBS, 0.00702 µM	108	93.9	108
RPMI 5 mM glucose + 10% FBS, 0.0211 µM	114	110	82.6
RPMI 5 mM glucose + 10% FBS, 0.0632 µM	115	110	82.4
RPMI 5 mM glucose + 10% FBS, 0.19 µM	123	118	86.9
RPMI 5 mM glucose + 10% FBS, 0.569 µM	111	87.1	6.07
RPMI 5 mM glucose + 10% FBS, 1.71 µM	104	106	37.1
RPMI 5 mM glucose + 10% FBS, 5.12 µM	110	72.9	39.1
RPMI 5 mM glucose + 10% FBS, 15.4 µM	58.7	42	30.9
RPMI 5 mM glucose + 10% FBS, 46.1 µM	18.4	7.11	18.3
RPMI 5 mM glucose + 10% dialyzed FBS, 0.000781 µM	97	102	47.4
RPMI 5 mM glucose + 10% dialyzed FBS, 0.00234 µM	118	105	82
RPMI 5 mM glucose + 10% dialyzed FBS, 0.00702 µM	96.1	113	80.5
RPMI 5 mM glucose + 10% dialyzed FBS, 0.0211 µM	98.1	110	76.1
RPMI 5 mM glucose + 10% dialyzed FBS, 0.0632 µM	113	113	75.5
RPMI 5 mM glucose + 10% dialyzed FBS, 0.19 µM	106	112	83.3
RPMI 5 mM glucose + 10% dialyzed FBS, 0.569 µM	102	91.1	5.75
RPMI 5 mM glucose + 10% dialyzed FBS, 1.71 µM	109	101	26.5
RPMI 5 mM glucose + 10% dialyzed FBS, 5.12 µM	103	82.3	27.6
RPMI 5 mM glucose + 10% dialyzed FBS, 15.4 µM	101	65.2	22
RPMI 5 mM glucose + 10% dialyzed FBS, 46.1 µM	22.7	11.2	15.4

COc1cc2nc(-c3cc(F)ccc3O)nc(N[C@@H]3CNC[C@H]3C(C)(C)O)c2cc1OC
AUC of viability dose-response curve
Conditions	NOMO1 [2]	P12-Ichikawa [3]	SEM cells [1]
HPLM + 10% dialyzed FBS	449	436	274
RPMI 5 mM glucose + 10% FBS	463	429	283
RPMI 5 mM glucose + 10% dialyzed FBS	455	410	227

cell viability [%]
Conditions	NOMO1 [5]	P12-Ichikawa [6]	SEM cells [4]
HPLM + 10% dialyzed FBS, 0.000781 µM	111	104	57.3
HPLM + 10% dialyzed FBS, 0.00234 µM	115	104	96.4
HPLM + 10% dialyzed FBS, 0.00702 µM	108	106	90.5
HPLM + 10% dialyzed FBS, 0.0211 µM	128	110	97.4
HPLM + 10% dialyzed FBS, 0.0632 µM	93.5	110	89.5
HPLM + 10% dialyzed FBS, 0.19 µM	122	109	59.6
HPLM + 10% dialyzed FBS, 0.569 µM	124	114	45.6
HPLM + 10% dialyzed FBS, 1.71 µM	109	120	37.2
HPLM + 10% dialyzed FBS, 5.12 µM	109	80.5	28.3
HPLM + 10% dialyzed FBS, 15.4 µM	89.4	76.6	16.1
HPLM + 10% dialyzed FBS, 46.1 µM	38.4	56.5	7.01
RPMI 5 mM glucose + 10% FBS, 0.000781 µM	107	108	59.9
RPMI 5 mM glucose + 10% FBS, 0.00234 µM	105	104	101
RPMI 5 mM glucose + 10% FBS, 0.00702 µM	108	111	99.6
RPMI 5 mM glucose + 10% FBS, 0.0211 µM	103	111	94.6
RPMI 5 mM glucose + 10% FBS, 0.0632 µM	101	118	90.4
RPMI 5 mM glucose + 10% FBS, 0.19 µM	115	128	62.3
RPMI 5 mM glucose + 10% FBS, 0.569 µM	109	119	54.6
RPMI 5 mM glucose + 10% FBS, 1.71 µM	122	129	35.7
RPMI 5 mM glucose + 10% FBS, 5.12 µM	114	83.5	25.6
RPMI 5 mM glucose + 10% FBS, 15.4 µM	106	67.8	14.5
RPMI 5 mM glucose + 10% FBS, 46.1 µM	49.4	44.3	5.78
RPMI 5 mM glucose + 10% dialyzed FBS, 0.000781 µM	101	116	46.9
RPMI 5 mM glucose + 10% dialyzed FBS, 0.00234 µM	97.8	123	94.4
RPMI 5 mM glucose + 10% dialyzed FBS, 0.00702 µM	100	117	80.5
RPMI 5 mM glucose + 10% dialyzed FBS, 0.0211 µM	118	113	86.5
RPMI 5 mM glucose + 10% dialyzed FBS, 0.0632 µM	106	121	64
RPMI 5 mM glucose + 10% dialyzed FBS, 0.19 µM	112	116	45.2
RPMI 5 mM glucose + 10% dialyzed FBS, 0.569 µM	112	124	34.6
RPMI 5 mM glucose + 10% dialyzed FBS, 1.71 µM	96.6	115	30.6
RPMI 5 mM glucose + 10% dialyzed FBS, 5.12 µM	99.6	69.6	15.8
RPMI 5 mM glucose + 10% dialyzed FBS, 15.4 µM	88.4	48.5	14.3
RPMI 5 mM glucose + 10% dialyzed FBS, 46.1 µM	53.7	37.5	6.75

N#Cc1ccnc(Nc2cc(C3CCN(C4COC4)CC3)cc(N3CCC(F)(F)C3)n2)c1
AUC of viability dose-response curve
Conditions	NOMO1 [2]	P12-Ichikawa [3]	SEM cells [1]
HPLM + 10% dialyzed FBS	430	455	424
RPMI 5 mM glucose + 10% FBS	429	441	415
RPMI 5 mM glucose + 10% dialyzed FBS	426	439	408

cell viability [%]
Conditions	NOMO1 [5]	P12-Ichikawa [6]	SEM cells [4]
HPLM + 10% dialyzed FBS, 0.000781 µM	121	97.8	96.4
HPLM + 10% dialyzed FBS, 0.00234 µM	109	99.8	97.9
HPLM + 10% dialyzed FBS, 0.00702 µM	119	104	91.6
HPLM + 10% dialyzed FBS, 0.0211 µM	114	105	110
HPLM + 10% dialyzed FBS, 0.0632 µM	103	99.5	110
HPLM + 10% dialyzed FBS, 0.19 µM	110	104	104
HPLM + 10% dialyzed FBS, 0.569 µM	114	100	109
HPLM + 10% dialyzed FBS, 1.71 µM	124	108	103
HPLM + 10% dialyzed FBS, 5.12 µM	127	107	102
HPLM + 10% dialyzed FBS, 15.4 µM	53.2	88.2	35.3
HPLM + 10% dialyzed FBS, 46.1 µM	10.6	36.1	10.2
RPMI 5 mM glucose + 10% FBS, 0.000781 µM	101	105	107
RPMI 5 mM glucose + 10% FBS, 0.00234 µM	99.7	104	127
RPMI 5 mM glucose + 10% FBS, 0.00702 µM	106	101	125
RPMI 5 mM glucose + 10% FBS, 0.0211 µM	106	101	128
RPMI 5 mM glucose + 10% FBS, 0.0632 µM	93.6	102	123
RPMI 5 mM glucose + 10% FBS, 0.19 µM	108	99.7	110
RPMI 5 mM glucose + 10% FBS, 0.569 µM	105	108	131
RPMI 5 mM glucose + 10% FBS, 1.71 µM	102	115	112
RPMI 5 mM glucose + 10% FBS, 5.12 µM	107	108	100
RPMI 5 mM glucose + 10% FBS, 15.4 µM	44.7	62.8	43.7
RPMI 5 mM glucose + 10% FBS, 46.1 µM	11.3	32.2	8.66
RPMI 5 mM glucose + 10% dialyzed FBS, 0.000781 µM	108	108	103
RPMI 5 mM glucose + 10% dialyzed FBS, 0.00234 µM	91.6	104	110
RPMI 5 mM glucose + 10% dialyzed FBS, 0.00702 µM	110	101	97.8
RPMI 5 mM glucose + 10% dialyzed FBS, 0.0211 µM	102	103	111
RPMI 5 mM glucose + 10% dialyzed FBS, 0.0632 µM	96.2	109	121
RPMI 5 mM glucose + 10% dialyzed FBS, 0.19 µM	107	104	101
RPMI 5 mM glucose + 10% dialyzed FBS, 0.569 µM	98.7	106	110
RPMI 5 mM glucose + 10% dialyzed FBS, 1.71 µM	108	108	106
RPMI 5 mM glucose + 10% dialyzed FBS, 5.12 µM	107	111	85.5
RPMI 5 mM glucose + 10% dialyzed FBS, 15.4 µM	39.1	56.8	25.5
RPMI 5 mM glucose + 10% dialyzed FBS, 46.1 µM	9.87	36.8	9.03
